According to US10017556B2, “Insulin receptor partial agonists” (MERCK SHARP & DOHME CORP., priority 2014, dated 2018):

System: lean C57BL/6NTac mice
Assay: Intraperitoneal Insulin Tolerance Test (IP-ITT)
Assay type: in vivo
Settings: intraperitoneal injection, two doses per compound (Table 16), blood glucose 30 to 360 min after dose
Experimental: Groups of N=6-8 animals per group were randomized by weight (average about 30 grams). Two days prior to study, the mice were conditioned to dosing with an intraperitoneal injection of 0.9% Sodium Chloride solution at 5 ml/kg dosing volume. On the morning of the study, food was removed two or four hours prior to the study. Blood glucose concentrations were determined at T=0 min (baseline) using a Glucometer. […] Blood glucose levels were determined from tail bleeds taken between 30 to 360 minutes after dose.

B29,B29′-suberoyl-(insulin)2 [Compound B, reference compound]
glucose profile at low versus high dose in IP-ITT: increasing the dosage of compounds A and B caused an increased glucose lowering potency
